One experiment concerns A549 cells. Nature of the experiment: cells. Type of experiment: cell-based. Conditions: Homo sapiens, A549, 72 h, read-out: IC50 A549.
The next experiment relates to H1975 cells. As to the kind of experiment: AO staining analysis. It is filed as cell-based. The conditions noted are these: T001-10027877 0.5, 1, 2 µM, AZD9291 1 µM.

The text below walks through data of publication PMC11351453 (BMC Chemistry, 2024).

`C=CC(=O)Nc1cc(Nc2nccc(-c3cn(C)c4ccccc34)n2)c(OC)cc1N(C)CCN(C)C` [AZD9291]: the IC50 in the experiment on A549 cells worked out at 4.95 µM. For the same compound, in the experiment on H1975 cells, the “cell morphology / induction of apoptosis (AO staining)” value is recorded as “induced significant shrinkage of the cell membrane”.

Usually IC50 stands for the concentration that inhibits the measured activity by half.
